This passage reports MIC results from ChEMBL document CHEMBL1157532, “Halichonadin F and the Cu(I) complex of halichonadin C from the sponge Halichondria sp” (2008).

Values after ≈ are worked out from the molar mass of the structure shown.

What all share (assay type): functional
For test [1], the system named is Micrococcus luteus. The test is described as follows: Antimicrobial activity against Micrococcus luteus.
Test [2] concerns Trichophyton mentagrophytes. Briefly: Antimicrobial activity against Trichophyton mentagrophytes.
The subject of test [3] is Cryptococcus neoformans. Briefly: Antimicrobial activity against Cryptococcus neoformans.

As usually defined, the MIC is the lowest concentration that inhibits growth of the organism. Lower therefore signals inhibition by little substance.

Take `C[C@@H]1CC[C@@H]2[C@@H]1[C@H]1[C@@H](CC[C@]2(C)N)C1(C)C` [HALICHONADIN F]: the MIC was 4 mg/L (≈ 18.1 µM) in test [1], 16 mg/L (≈ 72.3 µM) in test [2] and 16 mg/L (≈ 72.3 µM) in test [3].
